Laboratory results reported in the GenesisPotency data set.
Blank lines part the entries; values can stand above or below the molecule they belong to.

Legend:
[1] = target: T1, Mitogen-activated protein kinase kinase kinase 7/TGF-beta-activated kinase 1 and MAP3K7-binding protein 1, Homo sapiens (UniProt O43318+Q15750)
T1 sequence (whole entry): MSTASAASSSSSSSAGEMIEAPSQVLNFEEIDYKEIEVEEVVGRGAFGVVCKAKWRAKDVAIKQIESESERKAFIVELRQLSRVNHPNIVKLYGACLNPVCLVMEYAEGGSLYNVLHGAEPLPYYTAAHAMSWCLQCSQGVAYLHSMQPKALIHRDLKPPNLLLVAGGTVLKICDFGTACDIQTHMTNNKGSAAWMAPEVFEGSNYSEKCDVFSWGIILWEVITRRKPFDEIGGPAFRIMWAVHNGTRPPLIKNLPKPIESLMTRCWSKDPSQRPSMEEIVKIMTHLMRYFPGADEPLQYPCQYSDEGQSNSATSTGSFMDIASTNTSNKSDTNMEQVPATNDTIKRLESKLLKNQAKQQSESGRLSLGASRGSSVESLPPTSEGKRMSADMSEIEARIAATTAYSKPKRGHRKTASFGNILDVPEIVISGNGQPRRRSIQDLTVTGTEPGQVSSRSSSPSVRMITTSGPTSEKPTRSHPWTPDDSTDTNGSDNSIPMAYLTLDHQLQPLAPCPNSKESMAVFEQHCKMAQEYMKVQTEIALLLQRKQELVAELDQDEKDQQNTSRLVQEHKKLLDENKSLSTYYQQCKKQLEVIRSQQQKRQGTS

[2] = target: T2, Carbonic anhydrase, Methanosarcina thermophila (strain ATCC 43570 / DSM 1825 / OCM 12 / VKM B-1830 / TM-1) (UniProt P40881)
T2 sequence (whole entry): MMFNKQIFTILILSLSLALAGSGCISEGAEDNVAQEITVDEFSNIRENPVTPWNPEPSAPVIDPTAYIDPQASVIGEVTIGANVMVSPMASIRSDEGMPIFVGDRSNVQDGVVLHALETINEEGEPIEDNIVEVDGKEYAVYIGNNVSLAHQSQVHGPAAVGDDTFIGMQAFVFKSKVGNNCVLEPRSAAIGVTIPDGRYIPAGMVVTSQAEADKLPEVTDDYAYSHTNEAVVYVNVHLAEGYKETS

[3] = target: Carbonic anhydrase 2, Homo sapiens (UniProt P00918)
[4] = target: T3, Carbonic anhydrase, Pseudomonas aeruginosa (strain ATCC 15692 / DSM 22644 / CIP 104116 / JCM 14847 / LMG 12228 / 1C / PRS 101 / PAO1) (UniProt Q9HVB9)
T3 sequence (whole entry): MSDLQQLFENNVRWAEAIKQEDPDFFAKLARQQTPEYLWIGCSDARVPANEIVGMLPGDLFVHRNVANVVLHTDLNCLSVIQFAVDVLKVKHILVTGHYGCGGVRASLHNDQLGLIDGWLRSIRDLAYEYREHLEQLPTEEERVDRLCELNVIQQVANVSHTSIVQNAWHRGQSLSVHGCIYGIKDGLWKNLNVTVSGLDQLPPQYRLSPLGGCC

[5] = target: Delta-type opioid receptor, Mus musculus (UniProt P32300)
Chain of Delta-type opioid receptor, Mus musculus (P32300 whole entry): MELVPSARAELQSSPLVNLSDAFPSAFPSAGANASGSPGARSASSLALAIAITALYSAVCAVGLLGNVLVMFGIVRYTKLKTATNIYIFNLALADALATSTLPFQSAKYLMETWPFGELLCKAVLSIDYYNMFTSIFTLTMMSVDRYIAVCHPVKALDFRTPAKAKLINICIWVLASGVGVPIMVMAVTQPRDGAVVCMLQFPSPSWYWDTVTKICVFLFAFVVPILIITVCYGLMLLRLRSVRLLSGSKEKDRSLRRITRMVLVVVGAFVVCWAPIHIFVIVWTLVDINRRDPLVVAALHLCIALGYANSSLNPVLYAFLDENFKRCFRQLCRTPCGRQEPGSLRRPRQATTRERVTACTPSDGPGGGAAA

[6] = target: T4, Muscarinic acetylcholine receptor M5, Homo sapiens (UniProt P08912)
T4 sequence (whole entry): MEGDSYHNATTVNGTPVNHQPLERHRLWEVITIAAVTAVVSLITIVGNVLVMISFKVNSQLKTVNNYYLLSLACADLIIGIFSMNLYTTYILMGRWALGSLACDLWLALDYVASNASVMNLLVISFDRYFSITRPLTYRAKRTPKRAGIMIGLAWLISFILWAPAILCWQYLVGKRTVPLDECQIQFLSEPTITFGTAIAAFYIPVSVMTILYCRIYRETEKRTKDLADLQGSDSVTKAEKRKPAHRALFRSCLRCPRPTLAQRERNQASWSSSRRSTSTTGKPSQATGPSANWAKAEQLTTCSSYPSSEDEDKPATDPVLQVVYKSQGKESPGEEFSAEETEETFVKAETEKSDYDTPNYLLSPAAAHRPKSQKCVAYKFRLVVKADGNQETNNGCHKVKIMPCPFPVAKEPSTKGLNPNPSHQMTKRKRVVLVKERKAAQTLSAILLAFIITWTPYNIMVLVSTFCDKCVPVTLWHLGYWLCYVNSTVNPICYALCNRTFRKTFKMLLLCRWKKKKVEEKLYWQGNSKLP

[7] = target: T5, Glycylpeptide N-tetradecanoyltransferase, Trypanosoma brucei brucei (strain 927/4 GUTat10.1) (UniProt Q388H8)
T5 sequence (whole entry): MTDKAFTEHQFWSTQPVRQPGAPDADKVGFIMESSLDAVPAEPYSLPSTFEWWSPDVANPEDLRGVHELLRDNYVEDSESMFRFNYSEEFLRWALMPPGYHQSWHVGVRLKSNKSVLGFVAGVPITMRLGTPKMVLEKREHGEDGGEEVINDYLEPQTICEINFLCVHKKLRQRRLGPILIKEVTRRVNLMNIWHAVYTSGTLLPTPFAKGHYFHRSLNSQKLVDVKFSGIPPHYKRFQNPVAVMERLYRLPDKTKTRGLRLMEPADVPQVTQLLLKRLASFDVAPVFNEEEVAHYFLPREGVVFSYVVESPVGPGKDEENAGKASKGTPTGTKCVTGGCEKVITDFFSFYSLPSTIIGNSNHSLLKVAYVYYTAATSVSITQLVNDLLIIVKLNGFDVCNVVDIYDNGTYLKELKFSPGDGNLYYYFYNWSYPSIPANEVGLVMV

[8] = target: Carbonic anhydrase 2, Homo sapiens (UniProt P00918); remark: listed apart in the source
[9] = target: Inositol hexakisphosphate kinase 1, Homo sapiens (UniProt Q92551)
Chain of Inositol hexakisphosphate kinase 1, Homo sapiens (Q92551 whole entry, looked up): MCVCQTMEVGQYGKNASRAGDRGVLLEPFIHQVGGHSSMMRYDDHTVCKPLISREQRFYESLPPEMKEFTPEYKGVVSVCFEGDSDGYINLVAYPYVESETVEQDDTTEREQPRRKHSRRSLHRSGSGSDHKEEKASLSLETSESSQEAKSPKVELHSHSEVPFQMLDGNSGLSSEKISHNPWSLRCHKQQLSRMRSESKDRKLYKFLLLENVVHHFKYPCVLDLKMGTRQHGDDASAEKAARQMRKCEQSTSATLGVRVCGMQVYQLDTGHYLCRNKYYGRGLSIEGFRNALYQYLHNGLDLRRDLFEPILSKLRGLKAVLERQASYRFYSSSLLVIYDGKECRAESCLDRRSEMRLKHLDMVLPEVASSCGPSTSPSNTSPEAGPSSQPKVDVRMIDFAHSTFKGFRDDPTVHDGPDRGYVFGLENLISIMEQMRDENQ

IC50 [1]: > 5 µM
SMILES: O=C1CSC(/N=N/c2c(O)[nH]c3ccccc23)=N1

SMILES: C=CC(=O)Nc1ccc(Cn2nc(-c3ccc4[nH]c(C)nc4c3)c3c(N)ncnc32)cc1
Ki [2]: > 200000 µM
Ki [3]: > 200000 µM
Ki [4]: > 100000 µM

SMILES: COc1cc2c(c(OC)c1OC)-c1cc3c(cc1C(=O)[C@@H]1COC(=O)[C@H]1C2)OCO3
IC50 [5]: > 10 µM

Ki [6]: > 10 µM
SMILES: O=c1c(OC2C(O)OC(CO)C(O)C2O)c(-c2ccc(O)c(O)c2)oc2cc(O)cc(O)c12 (stereo not given)

SMILES: Cc1nn(C)c(C)c1N[SH+]([O-])c1c(Cl)cc(-c2ccc(OC(F)(F)F)cc2)cc1-c1ccc(OC(F)(F)F)cc1 (stereo not given)
IC50 [7]: > 100 µM

Ki [8]: > 10 µM
SMILES: CC(C)[C@H]1NC(=O)[C@@H](C)[C@@H](CC=CCCC(=O)O)NC(=O)[C@@H](Cc2ccc(O)cc2)NC(=O)[C@@H](C)NC1=O

Ki [8]: > 10 µM
SMILES: CC(C)[C@H]1NC(=O)[C@@H](C)[C@@H](CC=CCCC(N)=O)NC(=O)[C@@H](Cc2ccc(O)cc2)NC(=O)[C@@H](C)NC1=O

IC50 [9]: < 200 µM
SMILES: O=[N+](O)c1ccc(CNc2nc(NCc3cccc(C(F)(F)F)c3)nc3[nH]cnc23)cc1
